Counter-ions that a name gives are not always drawn.
Key:
[1] = Pharmacokinetic evaluation in SD rats (intravenous and oral); format: in vivo; conditions: male, Sprague-Dawley, plasma, SD rat; for Cmax / bioavailability: intravenous 1.0 mg/kg; for Cmax: oral 2.0 mg/kg (route of Cmax not stated), read-out: Peak concentration Cmax; for bioavailability: oral 2.0 mg/kg, read-out: Bioavailability F; for clearance / Vd: intravenous injection 1.0 mg/kg (oral 2.0 mg/kg); for clearance: read-out: Clearance rate CL; for Vd: read-out: Tissue distribution Vdss; for AUC(0-t) / half-life: oral administration 2.0 mg/kg; for AUC(0-t): read-out: Area under the drug-time curve AUC0-last PO; for half-life: read-out: Half-life T1/2 (PO) (converted)
Procedure: Test Embodiment 3: Pharmacokinetic Evaluation of Compound in Rats
Experimental objective: to test the pharmacokinetics of the compound in SD rats
Sprague Dawley rat (male, 200-300 g, 7-9 weeks old, Shanghai SLAC)
(§1) A standard protocol was used to test the pharmacokinetic characteristics of rodents after intravenous injection and oral administration of the compound. In the experiment, the candidate compound was prepared into a clear solution, and administrated to rats by single intravenous injection and oral administration. The vehicle for intravenous injection was a 5:95 DMSO and 10% hydroxypropyl cyclodextrin aqueous solution, and the vehicle for oral administration was a 0.5% w/v methylcellulose and 0.2% w/v tween 80 aqueous solution. Whole blood samples within 24 hours were collected, centrifuged at 3000 g for 15 minutes, and the supernatant was separated to obtain plasma samples. 4-fold volume of acetonitrile solution containing internal standard was added thereto to precipitate protein. The mixture was centrifuged, and the supernatant was taken, and an equal volume of water was added thereto. Then the mixture was centrifuged and the supernatant was taken for injection. The blood drug concentration was quantitatively analyzed by LC-MS/MS analysis method, and pharmacokinetic parameters, such as peak concentration, clearance rate, half-life, area under the drug-time curve and bioavailability, were calculated.

S1PR1 = target: T1, S1PR1 (Homo sapiens, UniProt P21453); experiment: In vitro S1PR1 agonistic activity, PathHunter cell line, chemiluminescent detection; format: cell-based; conditions: for EC50: 90-180 min at 37° C.; for Emax: % activity vs maximum control ligand
T1 construct: expressed in transfected cells
T1 sequence (P21453 whole entry): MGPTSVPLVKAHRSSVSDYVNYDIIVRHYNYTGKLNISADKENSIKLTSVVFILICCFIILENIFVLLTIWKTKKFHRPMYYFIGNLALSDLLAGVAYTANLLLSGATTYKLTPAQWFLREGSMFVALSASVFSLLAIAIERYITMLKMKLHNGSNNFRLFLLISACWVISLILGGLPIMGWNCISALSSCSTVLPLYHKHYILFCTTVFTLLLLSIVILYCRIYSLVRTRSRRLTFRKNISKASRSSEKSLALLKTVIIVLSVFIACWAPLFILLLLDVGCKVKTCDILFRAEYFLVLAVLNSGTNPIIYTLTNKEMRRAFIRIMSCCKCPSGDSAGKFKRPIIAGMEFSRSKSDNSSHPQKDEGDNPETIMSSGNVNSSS
Procedure: Test Embodiment 1: In Vitro Evaluation of the Agonistic Activity of the Compounds of the Present Disclosure on S1PR1
Experimental objective: to detect the agonistic activity of compounds on S1PR1
I. Cell Treatment • 1. A PathHunter cell line was thawed according to standard procedures; • 2. the cells were inoculated in a 20 μL 384-well microplate and incubated at 37° C. for appropriate time.
II. Agonist • 1. For agonist determination, cells were incubated with samples to be tested to induce a reaction; • 2. a storage solution to be tested was 5-fold diluted into a buffer; • 3. 5 μL of the 5-fold dilution was added to the cells and incubated at 37° C. for 90-180 minutes. The vehicle concentration was 1%.
III. Signal Detection • 1. 12.5 μL or 15 μL of PathHunter detection reagent at a volume ratio of 50% was added at a time, and then incubated at room temperature for 1 hour to generate a detection signal; • 2. the microplate was read with a PerkinElmer Envision™ instrument for chemiluminescent signal detection.
IV. Data Analysis • 1. Activity analysis of the compound was carried out by using CBIS data analysis kit (ChemInnovation, CAA); • 2. calculation formula: % activity=100%×(average test sample RLU−average vehicle RLU)/(average maximum control ligand−average vehicle RLU)

[2] = Pharmacokinetic evaluation in CD-1 mice (intravenous and oral); format: in vivo; conditions: male, mouse, plasma
Procedure: Test Embodiment 4: Pharmacokinetic Evaluation of Compound in Mice
Experimental objective: to test the pharmacokinetics of the compound in CD-1 mice
CD-1 mice (male, 20-40 g, 6-10 weeks old, Shanghai BK)
as §1, with “The standard” for “A standard”, “clear solution or a suspension,” for “clear solution,”, “to two mice” for “to rats”, “hydroxypropyl β-cyclodextrin” for “hydroxypropyl cyclodextrin”, “at 3200” for “at 3000”, “for 10” for “for 15”

SMILES | EC50 (S1PR1) [nM] | Emax (S1PR1) [%] | also measured
CC(C)Oc1ccc(-c2nc(-c3cccc4c3CCC43CCN(C(=O)[C@@H](O)CO)C3)no2)cc1C#N (stereo partly drawn) [Compound 45] | 0.29 | 126 | Cmax [1]: 1180 ng/mL; bioavailability [1]: 59.2%; clearance [1]: 1.59 mL/min/kg; Vd [1]: 1.94 L/kg; AUC(0-t) [1]: 22.9 µM·h; half-life [1]: 13.2 h
CC(C)Oc1ccc(-c2ncc(-c3cccc4c3CCC43CCN(C(=O)CO)C3)s2)cc1C#N (stereo not drawn) [Compound 14] | 1.59 | 82.2 | –
CC(C)Oc1ccc(-c2ncc(-c3cccc4c3CCC43CCN(CC4(C(=O)O)CC4)C3)s2)cc1C#N (stereo not drawn) [Hydrochloride of compound 26] | 4.47 | 73.8 | –
CC(C)Oc1ccc(-c2cnc(-c3cccc4c3CCC43CCN(C(=O)CO)C3)cn2)cc1C#N (stereo not drawn) [Compound 19] | 3.25 | 77.8 | –
CC(C)Oc1ncc(-c2nc(-c3cccc4c3CCC43CCN(CC4(C(=O)O)CC4)C3)no2)cc1Cl (stereo not drawn) [Hydrochloride of compound 39] | 3.46 | 144 | –
CC(C)Oc1ncc(-c2nc(-c3cccc4c3CCC43CCN(C(=O)CO)C3)no2)cc1C#N (stereo not drawn) [Compound 8] | 0.188 | 96.8 | Cmax ([2]; intravenous 0.5 mg/kg, oral 2.0 mg/kg (route of Cmax not stated), read-out: Peak concentration Cmax): 2280 ng/mL; bioavailability ([2]; intravenous 0.5 mg/kg, oral 2.0 mg/kg, read-out: Bioavailability F): 80.3%; clearance ([2]; intravenous injection 0.5 mg/kg (oral 2.0 mg/kg), read-out: Clearance rate CL): 3.58 mL/min/kg; Vd ([2]; intravenous injection 0.5 mg/kg (oral 2.0 mg/kg), read-out: Tissue distribution Vdss): 0.816 L/kg; AUC(0-t) ([2]; oral administration 2.0 mg/kg, read-out: Area under the drug-time curve AUC0-last PO): 16.3 µM·h; half-life ([2]; oral administration 2.0 mg/kg, read-out: Half-life T1/2 (PO) (converted)): 2.9 h
CC(C)Oc1ccc(-c2nc(-c3cccc4c3CCC43CCN(CC4(C(=O)O)CCC4)C3)no2)cc1C#N (stereo not drawn) [Hydrochloride of compound 23] | 0.0353 | 68.3 | –
CC(C)Oc1ccc(-c2ncc(-c3cccc4c3CCC43CCN(CC4(C(=O)O)CC4)C3)o2)cc1C#N (stereo not drawn) [Hydrochloride of compound 27] | 9.78 | 63.4 | –
CC(C)Cc1ccc(-c2nc(-c3cccc4c3CCC43CCN(CC4(C(=O)O)CC4)C3)no2)cc1 (stereo not drawn) [Hydrochloride of compound 46] | 5.76 | 105 | –
CC(C)Oc1ccc(-c2nc(-c3cccc4c3CCC43CCN(C(=O)CC#N)C3)no2)cc1C#N (stereo not drawn) [Compound 4] | 0.107 | 99.4 | –
CC(C)Oc1ccc(-c2nsc(-c3cccc4c3CCC43CCN(C(=O)CO)C3)n2)cc1C#N (stereo not drawn) [Compound 16] | 14.4 | 77.8 | –
CC(C)Oc1ccc(-c2ncc(-c3cccc4c3CCC43CCN(C(=O)CO)C3)o2)cc1C#N (stereo not drawn) [Compound 21] | 21.7 | 70.8 | –
O=C(O)C1(CN2CCC3(CCc4c(-c5noc(-c6ccc(C7CCCC7)c(C(F)(F)F)c6)n5)cccc43)C2)CC1 (stereo not drawn) [Hydrochloride of compound 38] | 0.041 | 100 | –
CC(C)Oc1ccc(-c2nc(-c3cccc4c3CCC43CCN(C(=O)CO)C3)no2)cc1Br (stereo not drawn) [Compound 10] | 1.31 | 101 | –
N#Cc1cc(-c2nc(-c3cccc4c3CCC43CCN(C(=O)CO)C3)no2)ccc1OC(F)F (stereo not drawn) [Compound 17] | 8.59 | 80.8 | –
COCC(=O)N1CCC2(CCc3c(-c4noc(-c5ccc(OC(C)C)c(C#N)c5)n4)cccc32)C1 (stereo not drawn) [Compound 3] | 0.129 | 88.6 | –
O=C(O)C1(CN2CCC3(CCc4c(-c5noc(-c6ccc(C7CCCCC7)c(C(F)(F)F)c6)n5)cccc43)C2)CC1 (stereo not drawn) [Hydrochloride of compound 37] | 0.047 | 94.1 | –

SMILES | EC50 (S1PR1) [nM] | Emax (S1PR1) [%] | also measured
CC(C)Oc1ccc(-c2nc(-c3cccc4c3CCC43CCN(C(=O)CO)C3)no2)cc1C(F)F (stereo not drawn) [Compound 12] | 0.477 | 87.6 | –
CC(C)Oc1ccc(-c2ncc(-c3cccc4c3CCC43CCN(CC4(C(=O)O)CC4)C3)cn2)cc1C#N (stereo not drawn) [Hydrochloride of compound 25] | 11.5 | 82.1 | –
CC(C)Oc1ccc(-c2nc(-c3cccc4c3CCC43CCN(C(=O)CCC(=O)O)C3)no2)cc1C#N (stereo not drawn) [Compound 5] | 0.0688 | 85.1 | –
CC(C)Oc1ccc(-c2nnc(-c3cccc4c3CCC43CCN(CC4(C(=O)O)CC4)C3)s2)cc1C#N (stereo not drawn) [Hydrochloride of compound 28] | 1.32 | 77.7 | –
CC(C)Oc1ccc(-c2nc(-c3cccc4c3CCC43CCN(C(=O)CN)C3)no2)cc1C#N (stereo not drawn) [Hydrochloride of compound 6] | 0.865 | 115 | –
CC(C)Oc1ccc(-c2nc(-c3cccc4c3CCC43CCN(CC4(C(=O)O)CC4)C3)ns2)cc1C#N (stereo not drawn) [Hydrochloride of compound 24] | 4.99 | 87.1 | –
CC(C)Oc1ccc(-c2nc(-c3cccc4c3CCC43CCN(C(=O)[C@H](O)CO)C3)no2)cc1C#N (stereo partly drawn) [Hydrochloride of compound 44] | 0.72 | 104 | –
CC(C)Oc1ccc(-c2nc(-c3cccc4c3CCC43CCN(C(=O)CO)C3)no2)cc1Cl (stereo not drawn) [Compound 11] | 1.78 | 84.6 | –
COc1cc(-c2nc(-c3cccc4c3CCC43CCN(CC4(C(=O)O)CC4)C3)no2)cc(C2CCCC2)n1 (stereo not drawn) [Compound 40] | 2.82 | 102 | Cmax [1]: 357 ng/mL; bioavailability [1]: 63.9%; clearance [1]: 5.47 mL/min/kg; Vd [1]: 5.99 L/kg; AUC(0-t) [1]: 7.14 µM·h; half-life [1]: 8.83 h
CC(C)Oc1ccc(-c2nnc(-c3cccc4c3CCC43CCN(C(=O)CO)C3)s2)cc1C#N (stereo not drawn) [Compound 15] | 2.2 | 98.9 | –
CC(C)Oc1ccc(-c2nc(-c3cccc4c3CCC43CCN(C(=O)CO)C3)ns2)cc1C#N (stereo not drawn) [Compound 20] | 9.39 | 90.4 | –
CC(C)Oc1ccc(-c2ncc(-c3cccc4c3CCC43CCN(C(=O)CO)C3)cn2)cc1C#N (stereo not drawn) [Compound 18] | 4.06 | 84.2 | –
CC(C)Oc1ccc(-c2nc(-c3cccc4c3CCC43CCN(C(=O)CS(C)(=O)=O)C3)no2)cc1C#N (stereo not drawn) [Compound 7] | 0.123 | 90.7 | –
CC(C)Nc1ncc(-c2nc(-c3cccc4c3CCC43CCN(C(=O)CO)C3)no2)cc1C#N (stereo not drawn) [Compound 13] | 10.7 | 77.8 | –
N#Cc1cc(-c2nc(-c3cccc4c3CCC43CCN(C(=O)CO)C3)no2)ccc1OC1CCCC1 (stereo not drawn) [Compound 9] | 2.15 | 75.8 | –
CC(C)Oc1ccc(-c2nc(-c3cccc4c3CCC43CCN(CC4(C(=O)O)CC4)C3)no2)cc1C(F)(F)F (stereo not drawn) [Hydrochloride of compound 43] | 0.1 | 108 | –
